{"source": "paper PMC12926040", "about": "“ADP-ribose is a competitive inhibitor of methanol dehydrogenases from Bacillus methanolicus” (The Journal of Biological Chemistry, 2025)", "key": {"[1]": {"tested_on": "BmMDH2 free of metal ions", "assay": "EDTA treatment of BmMDH2 and recovery of activity with metal ions", "assay_type": "biochemical, Bacillus methanolicus MGA3", "experimental": "To further characterize the specific activity of BmMDH2 containing different metal ions, the purified BmMDH2 was treated with EDTA to remove the metal ions it coordinated during expression or purification. The protein was incubated with 10 equivalents of EDTA in glycine-NaOH buffer (100 mM, pH 9.5) on the ice for 1 hour. Subsequently, the EDTA was removed from the protein using the HiTrap desalting column (Cytiva, CAT#17-1408-01). […] The BmMDH2 free of metal ions at 10 μM was incubated in glycine-NaOH buffer (100 mM, pH 9.5) containing 1 mM of various metal ions on ice for 1 h, followed by the analysis of the activity. […] Overall, the above results indicated the optimum metal ion for BmMDH2 activity was Mn^2+, which was also supplied in the rest of the research.\nFig. S12 The effect of metal ions on the activity of BmMDH2. a, The effect of metal ions on the activity of BmMDH2. The purified BmMDH2 at 10 μM was incubated with 1 mM of various metal ions on ice for 1 h, the enzyme activities were measured using 50 mM propanol as substrate at 37 °C. The activity of BmMDH2 incubated in the absence of metal ion was taken as 100%. Data are means ± SDs of three measurements. b. The recovery activity of metal ions-free BmMDH2 replenished with various metal ions. The metal ions in BmMDH2 were chelated with EDTA. The activity of BmMDH2 with Mn^2+ replenishment was taken as 100%. Data are means ± SDs of three measurements."}, "[2]": {"target": "NAD-dependent methanol dehydrogenase 2 from Bacillus methanolicus MGA3 (BmMDH2) (Bacillus methanolicus MGA3)", "assay": "crystal structure; BmMDH2 apo (2.8 Å), with ADPR (2.6 Å) and with NAD+ (2.6 Å); sitting-drop vapor diffusion at 18 °C, 30 mg/ml protein, Bis-Tris propane pH 6.0-7.0, PEG 3350"}, "[3]": {"target": "T1, BmMDH2 (Bacillus methanolicus, UniProt I3E949)", "T1 sequence (I3E949 entry or part of it)": "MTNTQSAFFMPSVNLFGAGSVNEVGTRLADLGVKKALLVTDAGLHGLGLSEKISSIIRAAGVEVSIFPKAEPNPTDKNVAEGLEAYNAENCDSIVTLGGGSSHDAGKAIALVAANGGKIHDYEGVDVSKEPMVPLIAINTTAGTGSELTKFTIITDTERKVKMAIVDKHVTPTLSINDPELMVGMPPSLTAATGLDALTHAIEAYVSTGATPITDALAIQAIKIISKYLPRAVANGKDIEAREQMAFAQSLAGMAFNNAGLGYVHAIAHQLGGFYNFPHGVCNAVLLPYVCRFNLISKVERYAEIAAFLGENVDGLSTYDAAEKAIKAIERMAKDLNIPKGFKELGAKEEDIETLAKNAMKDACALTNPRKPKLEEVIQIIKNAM", "assay": "Effect of metal ions on the activity of purified BmMDH2", "assay_type": "biochemical", "details": "1 mM metal ion, on ice 1 h; 50 mM propanol, 37 °C", "experimental": "As a first step, different metal ions were directly incubated with BmMDH2 to determine their impact on its activity. The purified BmMDH2 was diluted to 10 μM in glycine-NaOH buffer (100 mM, pH 9.5) containing 1 mM of various metal ions. After incubation on ice for 1 h, the enzymatic activities were measured in glycine-NaOH buffer (100 mM, pH 9.5) containing 3 mM NAD^+, 1 μM BmMDH2, 0.1 mM various metal ions and 50 mM propanol at 37 °C.\nThe purified BmMDH2 at 10 μM was incubated with 1 mM of various metal ions on ice for 1 h, the enzyme activities were measured using 50 mM propanol as substrate at 37 °C. The activity of BmMDH2 incubated in the absence of metal ion was taken as 100%. Data are means ± SDs of three measurements. b. The recovery activity of metal ions-free BmMDH2 replenished with various metal ions. The metal ions in BmMDH2 were chelated with EDTA. The activity of BmMDH2 with Mn^2+ replenishment was taken as 100%. Data are means ± SDs of three measurements."}, "[4]": {"target": "activator protein ACT from Bacillus methanolicus MGA3 (Nudix hydrolase, ADPRase) (Bacillus methanolicus MGA3) (UniProt Q8KP10)", "assay": "crystal structure; apo-ACT in two conformations of loop 132-146 (2.0 and 2.4 Å); 90 mg/ml protein in 20 mM Tris-HCl pH 7.5, 150 mM NaCl; reservoir MES pH 5.2 with PEG 400, or MMT pH 5.0 with PEG 1500"}, "[5]": {"target": "T1, BmMDH2", "assay": "Effects of NAM, AMP and ADPR (0.3 mM each) on BmMDH2 activity", "assay_type": "biochemical, Bacillus methanolicus MGA3", "details": "3 mM NAD+, 40 mM ethanol"}, "[6]": {"assay": "Hydrolysis of NAD+ in glycine-NaOH buffer pH 9.5 at 25 °C (HPLC)", "assay_type": "physicochemical", "experimental": "NAD^+ (3 mM) was incubated with (black) or without (blue) 10 nM ACT in glycine-NaOH buffer (pH 9.5, 5 mM MgCl2) at 25 °C for 60 min. Unincubated NAD^+ (red) served as a control. Compounds were identified via LC-MS. […] Data are presented as means ± SDs (n = 3). C, degradation of ACT-treated NAD^+ in glycine-NaOH buffer (pH 9.5) at 25 °C. ACT was removed by ultrafiltration before analysis. D, ADPR content in NAD^+ from different suppliers. […] E, schematic of the reactions during ACT incubation with NAD^+.\nFig. S5 The hydrolysis rate of NAD^+ at 25 °C. NAD^+ was dissolved in glycine-NaOH buffer (pH 9.5, 100 mM) at a concentration of 3 mM and incubated at 25 °C. Samples were withdrawn at various time intervals and analyzed by HPLC. The residual NAD^+ was quantified according to the standard curves of NAD^+."}, "[7]": {"target": "T1, BmMDH2", "assay": "BmMDH2 activation by ACT, NADH formation monitored at 340 nm", "assay_type": "biochemical", "details": "final NAD+ raised by 2.9 mM after […]; 42 μM/min before; 50 nM ACT", "experimental": "Figure 1 ACT-catalyzed conversion of NAD^+ into a compound that activates BmMDH2.A, effect of ACT concentration on BmMDH2 activation. The formation of NADH was monitored at 340 nm, with 100 nM BmMDH2 in glycine-NaOH buffer (pH 9.5) containing 0 to 125 nM ACT, 3 mM NAD^+, 20 mM ethanol, 5 mM MgCl2 and 0.5 mM MnCl2. Data for the initial 10 min are highlighted in the right panel. Data were from a single experiment. B, effects of the following treatments on BmMDH2 activation: preincubated ACT & NAD^+ (red), preincubated ACT & BmMDH2 (blue), ultrafiltrate of preincubated ACT & NAD^+ (green), and ultrafiltrate of ACT (purple) or NAD^+ (cyan) solutions. Preincubations were performed in glycine-NaOH buffer (pH 9.5) with 5 mM MgCl2 and 0.5 mM MnCl2 at 25 °C for 30 min. Ethanol, BmMDH2, or NAD^+ was subsequently added to achieve final concentrations of 10 nM ACT, 20 mM ethanol, 3 mM NAD^+, and 200 nM BmMDH2. For ultrafiltration, preincubated samples were filtered (10 kDa cutoff, Millipore), and the flowthrough was used for activation assays. Data represent means ± SD (n = 3). C, effect of NAD^+ concentration on BmMDH2 activation. Activity was measured using 100 nM BmMDH2 in glycine-NaOH buffer (pH 9.5) with 50 nM ACT, 0 to 20 mM NAD^+, 5 mM MgCl2, and 0.5 mM MnCl2. Data were from a single experiment. D, time-course of BmMDH2 activation. Reaction were performed in 200 μl glycine-NaOH buffer (100 mM, pH 9.5) with 5 mM MgCl2, 0.5 mM MnCl2, 0.25 mM NAD^+, 0.1 μM BmMDH2, 20 mM ethanol, and 50 nM ACT. Fresh NAD^+ (4 μl, 150 mM) was added twice during the reaction. Data were from a single experiment. E, catalytic rates of BmMDH2 were calculated from the slopes of the data in panel D. Additional replicates of the experiments shown in panels A, C, and D are provided in Fig. S4. […]\nThe catalytic processes of MDHs were monitored by measuring NADH absorbance at 340 nm using a Tecan SPARK UV-Vis plate reader (Tecan Austria GmbH) at 25 °C. […]"}, "[8]": {"tested_on": "NC(=O)c1ccc[n+]([C@@H]2O[C@H](COP(=O)(O)OP(=O)(O)OC[C@H]3O[C@@H](n4cnc5c(N)ncnc54)[C@H](O)[C@@H]3O)[C@@H](O)[C@H]2O)c1", "assay": "purified protein, by the assay type", "details": "other: in the presence of 10 nM ACT, 40 mM ethanol, pH 8.0, 25.0 °C"}}, "data": [{"molecule": "O=C(O)CN(CCN(CC(=O)O)CC(=O)O)CC(=O)O", "note": "[EDTA, reference compound]", "values": [{"measurement": "BmMDH2 activity after EDTA treatment", "setting": "[1]; 10 equivalents of EDTA, pH 9.5, on ice 1 hour", "value": "completely lost"}]}, {"molecule": "NAD-dependent methanol dehydrogenase 2 from Bacillus methanolicus MGA3 (BmMDH2) (enzyme)", "values": [{"measurement": "stoichiometry N", "setting": "[2]", "value": 10}]}, {"molecule": "[Ni+2]", "note": "[Ni^2+]", "values": [{"measurement": "effect of metal ion on BmMDH2 activity", "setting": "[3]", "value": "slightly decreased"}]}, {"molecule": "[Fe+2]", "note": "[Fe^2+]", "values": [{"measurement": "effect of metal ion on BmMDH2 activity", "setting": "[3]", "value": "negligible effect"}]}, {"molecule": "[Mg+2]", "note": "[Mg^2+]", "values": [{"measurement": "effect of metal ion on BmMDH2 activity", "setting": "[3]", "value": "slightly decreased"}, {"measurement": "recovery of activity of metal-free BmMDH2", "setting": "[1]; 1 mM metal ion, on ice 1 h", "value": "didn’t restore the activity"}]}, {"molecule": "[Zn+2]", "note": "[Zn^2+]", "values": [{"measurement": "effect of metal ion on BmMDH2 activity", "setting": "[3]", "value": "significantly inhibited"}, {"measurement": "recovery of activity of metal-free BmMDH2", "setting": "[1]; 1 mM metal ion, on ice 1 h", "value": "didn’t restore the activity"}]}, {"molecule": "activator protein ACT from Bacillus methanolicus MGA3 (Nudix hydrolase, ADPRase) (from UniProt Q8KP10 1-183) (enzyme)", "values": [{"measurement": "stoichiometry N", "setting": "[4]", "value": 2}]}, {"molecule": "[Mn+2]", "note": "[Mn^2+]", "values": [{"measurement": "effect of metal ion on BmMDH2 activity", "setting": "[3]", "value": "significantly enhanced"}, {"measurement": "activity of metal-free BmMDH2 replenished with metal ion", "setting": "[1]; 1 mM metal ion, on ice 1 h", "value": "1.04 ± 0.02", "unit": "U/mg"}]}, {"molecule": "[Co+2]", "note": "[Co^2+]", "values": [{"measurement": "effect of metal ion on BmMDH2 activity", "setting": "[3]", "value": "significantly enhanced"}]}, {"molecule": "[Cu+2]", "note": "[Cu^2+]", "values": [{"measurement": "effect of metal ion on BmMDH2 activity", "setting": "[3]", "value": "significantly inhibited"}, {"measurement": "recovery of activity of metal-free BmMDH2", "setting": "[1]; 1 mM metal ion, on ice 1 h", "value": "didn’t restore the activity"}]}, {"molecule": "Nc1ncnc2c1ncn2[C@@H]1O[C@H](COP(=O)(O)O)[C@@H](O)[C@H]1O", "note": "[AMP]", "values": [{"measurement": "effect on BmMDH2 activity (in words)", "setting": "[5]", "value": "Neither AMP nor NAM significantly influenced activation"}]}, {"molecule": "NC(=O)c1ccc[n+]([C@@H]2O[C@H](COP(=O)(O)OP(=O)(O)OC[C@H]3O[C@@H](n4cnc5c(N)ncnc54)[C@H](O)[C@@H]3O)[C@@H](O)[C@H]2O)c1", "note": "[NAD^+]", "values": [{"measurement": "half-life at 3 mM", "setting": "[6]; glycine-NaOH buffer, glycine-NaOH pH 9.5, 25 °C, read-out: t1/2 of NAD+ hydrolysis (converted)", "value": 64, "unit": "h"}, {"measurement": "rate constant for NAD+ hydrolysis", "setting": "[6]; glycine-NaOH pH 9.5, 25 °C", "value": 0.011, "unit": "h⁻¹"}, {"measurement": "increase of ADPR and NAM on incubation of NAD+", "setting": "[6]; glycine-NaOH pH 9.5, 60 min", "value": "about 40%"}, {"measurement": "catalytic rate of activated BmMDH2 after additional NAD+ dose", "setting": "[7]", "value": 4.8, "unit": "µM/min"}]}, {"molecule": "[Ca+2]", "note": "[Ca^2+]", "values": [{"measurement": "effect of metal ion on BmMDH2 activity", "setting": "[3]", "value": "slightly decreased"}, {"measurement": "recovery of activity of metal-free BmMDH2", "setting": "[1]; 1 mM metal ion, on ice 1 h", "value": "didn’t restore the activity"}]}, {"molecule": "NC(=O)c1cccnc1", "note": "[NAM, nicotinamide]", "values": [{"measurement": "effect on BmMDH2 activity (in words)", "setting": "[5]", "value": "Neither AMP nor NAM significantly influenced activation"}]}, {"molecule": "BmMDH2S101G (Bacillus methanolicus MGA3; S101G)", "values": [{"measurement": "Km", "setting": "[8]", "value": "6.2 ± 0.8", "unit": "mM"}]}]}
